One assay deals with blood glucose level. The assay is described as follows: Hypoglycemic activity in obese diabetic mice (Table 1). It is filed as in vivo, male viable yellow obese-diabetic mice. Conditions: Mus musculus, ip, 2 h, 50 mg/kg, intraperitoneal, 2 hrs; read-out: Percent of Initial Blood Glucose Level After 2 hrs. How it is done: The hypoglycemic activity of the compounds of the present invention was determined by testing the efficacy of the compounds in vivo in male viable yellow obese-diabetic mice. The test procedure is described in detail below.
Test formulations were prepared by dissolving the test compound in a saline solution containing 2% Emulphor (a polyoxyethylated vegetable oil surfactant from GAP Corp.) to provide the dose level desired. Each test formulation was administered to six viable yellow obese-diabetic mice intraperitoneally at the beginning of the experiment. Blood glucose levels were determined immediately before the first dose and at 2 and 4 hours thereafter using glucose oxidase. A mean was taken of the 6 values obtained before the first dose and at the 2 and 4 hour intervals. In Table 1, Column 1 provides the example number of the test compound, Column 2 provides the dose level of compound tested, and Columns 3 and 4 provide a measurement of the test animal's blood glucose level 2 and 4 hours after test compound administration, respectively, as a percentage of the test animal' s pre-administration blood glucose level.
On to `O=C1NC(=S)SC1=Cc1ccc2ccccc2c1` [Example 35, 5-[(2-naphthalenyl)methylene)-2-thioxo-4-thiazolidinone], for which the response vs control in vivo at 50 mg/kg was found to be 83 ± 5%.

Turning to `CCCOc1ccc(C=C2SC(=S)NC2=O)cc1OCC` [Example 49, 5-[(3-ethoxy-4-propoxyphenyl)methylene]-2-thioxo-4-thiazolidinone], the response vs control in vivo at 50 mg/kg was 83 ± 5%.

With `CCCOc1cc(C=C2SC(=S)NC2=O)ccc1OCC` [Example 50, 5-[(3-propoxy-4-ethoxyphenyl)methylene]-2-thioxo-4-thiazolidinone], the response vs control in vivo at 50 mg/kg is 75 ± 5%.

For `O=C1NC(=S)SC1=Cc1cc(Cl)c(O)c(Cl)c1` [Example 55, 5-[(3,5-dichloro-4-hydroxyphenyl)methylene]-2-thioxo-4-thiazolidinone], the response vs control in vivo at 50 mg/kg came to 81 ± 3%.

The assay is the same for the next values; noted with them: Mus musculus, ip, 4 h, 50 mg/kg, intraperitoneal, 4 hrs; read-out: Percent of Initial Blood Glucose Level After 4 hrs.
For the compound `O=C1NC(=S)SC1=Cc1ccc2ccccc2c1` [Example 35, 5-[(2-naphthalenyl)methylene)-2-thioxo-4-thiazolidinone], the response vs control in vivo at 50 mg/kg was determined as 85 ± 6%.

With `CCCOc1ccc(C=C2SC(=S)NC2=O)cc1OCC` [Example 49, 5-[(3-ethoxy-4-propoxyphenyl)methylene]-2-thioxo-4-thiazolidinone], the response vs control in vivo at 50 mg/kg is 77 ± 7%.

As to `CCCOc1cc(C=C2SC(=S)NC2=O)ccc1OCC` [Example 50, 5-[(3-propoxy-4-ethoxyphenyl)methylene]-2-thioxo-4-thiazolidinone], the response vs control in vivo at 50 mg/kg came out at 69 ± 5%.

In the case of `O=C1NC(=S)SC1=Cc1cc(Cl)c(O)c(Cl)c1` [Example 55, 5-[(3,5-dichloro-4-hydroxyphenyl)methylene]-2-thioxo-4-thiazolidinone], the response vs control in vivo at 50 mg/kg is 75 ± 3%.

Staying with this assay, now noted: Mus musculus, ip; 25 mg/kg, intraperitoneal, 2 hrs; read-out: Percent of Initial Blood Glucose Level After 2 hrs.
On to `COc1cccc(C=C2SC(=S)NC2=O)c1` [Example 25, 5-[(3-methoxyphenyl)methylene]-2-thioxo-4-thiazolidinone], for which the response vs control in vivo at 25 mg/kg worked out at 84 ± 5%.

The same assay, now with this note: Mus musculus, ip; 25 mg/kg, intraperitoneal, 4 hrs; read-out: Percent of Initial Blood Glucose Level After 4 hrs.
As for `COc1cccc(C=C2SC(=S)NC2=O)c1` [Example 25, 5-[(3-methoxyphenyl)methylene]-2-thioxo-4-thiazolidinone], the response vs control in vivo at 25 mg/kg came out at 87 ± 6%.

The same assay, now with this note: Mus musculus, ip; 50 mg/kg, intraperitoneal, 2 hrs; read-out: Percent of Initial Blood Glucose Level After 2 hrs.
In the case of `COc1cccc(C=C2SC(=S)NC2=O)c1` [Example 25, 5-[(3-methoxyphenyl)methylene]-2-thioxo-4-thiazolidinone], the response vs control in vivo at 50 mg/kg was determined as 78 ± 4%.

The assay is the same for the next values; noted with them: Mus musculus, ip; 50 mg/kg, intraperitoneal, 4 hrs; read-out: Percent of Initial Blood Glucose Level After 4 hrs.
On to `COc1cccc(C=C2SC(=S)NC2=O)c1` [Example 25, 5-[(3-methoxyphenyl)methylene]-2-thioxo-4-thiazolidinone], for which the response vs control in vivo at 50 mg/kg is 74 ± 4%.

Staying with this assay, now noted: compared to structurally similar compounds known in the art; in words.
Take `CCCOc1cc(C=C2SC(=S)NC2=O)ccc1OCC` [Example 50, 5-[(3-propoxy-4-ethoxyphenyl)methylene]-2-thioxo-4-thiazolidinone]: the “ability to lower blood glucose levels in mammals” value is “surprising ability to lower blood glucose levels in mammals”.

The test system of the next assay is blood glucose level. The assay is described as follows: Hypoglycemic activity in normal fed rats (Table 2). It is filed as in vivo, male Sprague Dawley rats. Conditions: Rattus norvegicus; 200 mg/kg, oral, 3 hrs; read-out: Percent of Initial Blood Glucose Level After 3 hrs. Here is the method:
The procedure used in this test system is described below.
The desired dose level of each test formulation was administered to four rats by oral […] at the beginning of the experiment. Blood glucose levels were determined immediately before the first dose and at 3 and 5 hours thereafter by an enzymatic procedure employing glucose oxidase and peroxidase coupled with a chromogenic oxygen acceptor. A mean was taken of the 4 values obtained before the first dose and at the 3 and 5 hour intervals.
Turning to `COc1cccc(C=C2SC(=S)NC2=O)c1` [Example 25, 5-[(3-methoxyphenyl)methylene]-2-thioxo-4-thiazolidinone], the response vs control in vivo at 200 mg/kg was 100%.

Regarding `CCCOc1ccc(C=C2SC(=S)NC2=O)cc1OCC` [Example 49, 5-[(3-ethoxy-4-propoxyphenyl)methylene]-2-thioxo-4-thiazolidinone], the response vs control in vivo at 200 mg/kg worked out at 100%.

Take `Cc1cc(C=C2SC(=S)NC2=O)cc(C)c1O` [Example 62, 5-[(3,5-dimethyl-4-hydroxyphenyl)methylene]-2-thioxo-4-thiazolidinone]: the response vs control in vivo at 200 mg/kg worked out at 78%.

Take `CCCCCOc1ccc(C=C2SC(=S)N(C)C2=O)cc1OC` [Example 65, 5-[(3-methoxy-4-pentoxyphenyl)methylene]-2-thioxo-3-methyl-4-thiazolidinone]: the response vs control in vivo at 200 mg/kg came out at 100%.

For `CCCCCOc1ccc(C=C2SCNC2=O)cc1OC` [Example 66, 5-[(3-methoxy-4-pentoxyphenyl)methylene]-4-thiazolidinone], the response vs control in vivo at 200 mg/kg was 100%.

Consider `CCCCCOc1ccc(CC2SCNC2=O)cc1OC` (stereo not drawn) [Example 67, 5-[(3-methoxy-4-pentoxyphenyl)methyl]-4-thiazolidinone], for which the response vs control in vivo at 200 mg/kg amounted to 92%.

The same assay, now with this note: Rattus norvegicus; 200 mg/kg, oral, 5 hrs; read-out: Percent of Initial Blood Glucose Level After 5 hrs.
Consider `COc1cccc(C=C2SC(=S)NC2=O)c1` [Example 25, 5-[(3-methoxyphenyl)methylene]-2-thioxo-4-thiazolidinone], for which the response vs control in vivo at 200 mg/kg was 100%.

Consider `CCCOc1ccc(C=C2SC(=S)NC2=O)cc1OCC` [Example 49, 5-[(3-ethoxy-4-propoxyphenyl)methylene]-2-thioxo-4-thiazolidinone], for which the response vs control in vivo at 200 mg/kg was determined as 98%.

On to `Cc1cc(C=C2SC(=S)NC2=O)cc(C)c1O` [Example 62, 5-[(3,5-dimethyl-4-hydroxyphenyl)methylene]-2-thioxo-4-thiazolidinone], for which the response vs control in vivo at 200 mg/kg was 53%.

Consider `CCCCCOc1ccc(C=C2SC(=S)N(C)C2=O)cc1OC` [Example 65, 5-[(3-methoxy-4-pentoxyphenyl)methylene]-2-thioxo-3-methyl-4-thiazolidinone], for which the response vs control in vivo at 200 mg/kg was 91%.

Take `CCCCCOc1ccc(C=C2SCNC2=O)cc1OC` [Example 66, 5-[(3-methoxy-4-pentoxyphenyl)methylene]-4-thiazolidinone]: the response vs control in vivo at 200 mg/kg was determined as 86%.

Turning to `CCCCCOc1ccc(CC2SCNC2=O)cc1OC` (stereo not drawn) [Example 67, 5-[(3-methoxy-4-pentoxyphenyl)methyl]-4-thiazolidinone], the response vs control in vivo at 200 mg/kg was 88%.

For a further assay, the target named is T1, Human liver cathepsin D (Homo sapiens, UniProt P07339).
T1 construct: purchased Athens Research and Technology, Athens, Ga; host or cells: human liver
T1 sequence (P07339 169-412 limits assumed): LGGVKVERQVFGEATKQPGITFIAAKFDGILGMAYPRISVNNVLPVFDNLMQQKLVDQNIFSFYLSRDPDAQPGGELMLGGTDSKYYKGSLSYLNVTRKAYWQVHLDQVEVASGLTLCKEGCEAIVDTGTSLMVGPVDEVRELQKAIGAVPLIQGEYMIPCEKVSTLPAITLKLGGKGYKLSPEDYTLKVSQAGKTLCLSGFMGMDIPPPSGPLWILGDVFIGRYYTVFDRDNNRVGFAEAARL
T1 sequence (P07339 65-161 limits assumed): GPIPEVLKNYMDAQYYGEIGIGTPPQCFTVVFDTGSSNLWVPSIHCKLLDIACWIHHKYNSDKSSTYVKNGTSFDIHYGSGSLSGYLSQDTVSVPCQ
Nature of the assay: Cathepsin D inhibition, fluorometric assay (Tables 5 and 6). It is filed as biochemical.
Settings: not given
How it is done: Human liver cathepsin D (Athens Research and Technology, Athens, Ga.) was diluted in assay buffer, 200 mM NaOAc, pH 4.5, 150 mM NaCl to 500 ng/mL and then 100 μL of this cathepsin D solution was added to each well of a 96 well plate with the exception of control wells which received just 100 μL of assay buffer. […] Blank and enzyme control wells each received 5 μL of the DMSO vehicle.
After incubation at 37° C. for 30 minutes, cathepsin D activity was terminated by the addition of 100 μL per well of 400 mU/mL microsomal leucine aminopeptidase (EC 3.4.11.2, Sigma, St. Louis, Mo.) in 1M Tris-HCl, pH 8.0.
Following a two hour incubation at 37° C., to allow the aminopeptidase to release the fluorophore, 7-amido-4-methylcoumarin (AMC) from the products of cathepsin D cleavage, the plates were again analyzed in the fluorometer. In order to check for potential false positives, i.e., inhibitors of microsomal leucine aminopeptidase, residual aminopeptidase activity was monitored directly in each well by the addition of 20 μL/well of 2.5 mM Leu-pNA (Bachem Biosciences, Philadelphia, Pa.) in 10% DMSO.
The compound `O=C1NC(=S)SC1=Cc1ccc2ccccc2c1` [Example 35, 5-[(2-naphthalenyl)methylene)-2-thioxo-4-thiazolidinone] showed an IC50 of 8.9 µM.

Staying with this assay, now noted: Compound Stock Concentration 4.15 μg/ml.
`O=C1NC(=S)SC1=Cc1ccc2ccccc2c1` [Example 35, 5-[(2-naphthalenyl)methylene)-2-thioxo-4-thiazolidinone] gave an inhibition at 4.15 µg/mL (stock) of 57%.

The compound `CCCOc1cc(C=C2SC(=S)NC2=O)ccc1OCC` [Example 50, 5-[(3-propoxy-4-ethoxyphenyl)methylene]-2-thioxo-4-thiazolidinone] returned an inhibition at 4.15 µg/mL (stock) of 40%.

As for `O=C1NC(=S)SC1=Cc1cc(Cl)c(O)c(Cl)c1` [Example 55, 5-[(3,5-dichloro-4-hydroxyphenyl)methylene]-2-thioxo-4-thiazolidinone], the inhibition at 4.15 µg/mL (stock) turned out to be 90%.

Staying with this assay, now noted: compared to structurally similar compounds known in the art; in words.
Turning to `O=C1NC(=S)SC1=Cc1cc(Cl)c(O)c(Cl)c1` [Example 55, 5-[(3,5-dichloro-4-hydroxyphenyl)methylene]-2-thioxo-4-thiazolidinone], the “ability to inhibit cathepsin D” value is given as “surprising ability to inhibit cathepsin D levels”.

Broadly, the IC50 is the midpoint of a concentration-inhibition curve. Higher therefore signals a need for much substance. A word on the inhibition: it is the percentage by which the read-out fell short of the control. A low value points to little suppression.
